Assay: Biological distribution in normal Kunming mice (γ counter, %ID/g)
Assay type: in vivo
Details: tail vein injection, 60 min
Procedure: The biological distribution experiment of [^18F]AlF-FAPT was carried out in normal Kunming mice. Twenty Kunming mice were randomly and equally divided into four groups and each injected with 0.1 ml of [^18F]AlF-FAPT (1.48~2.22 MBq) through their tail vein. The mice were then sacrificed after 5, 30, 60, and 90 minutes, followed by weighing their organs and determining the radioactivity using a γ counter. The radioactivity of each organ was normalized using the percentage of injected dose per gram of tissue (% ID/g). [^18F]FAPI-42 also used the same method mentioned above to carry out the biological distribution at the time point of 60 minutes.

radioactivity uptake value in the gallbladder: 7.30 ± 1.43 %ID/g
SMILES: N#C[C@@H]1CC(F)(F)CN1C(=O)CNC(=O)c1ccnc2ccc(OCCCN3CCN(C(=O)CN4CCN5CCN(CC4)CC(=O)[O][Al]([F])[O]C(=O)C5)CC3)cc12 [[^18F]FAPI-42]

— paper PMC8770261, “Automatic Production and Preliminary PET Imaging of a New Imaging Agent [^18F]AlF-FAPT” (Frontiers in Oncology, 2022)
